Experimental data: ChEMBL document CHEMBL3045339, “Synthesis of benzoxazoles, benzothiazoles and benzimidazoles and evaluation of their antifungal, insecticidal and herbicidal activities” (1992)
Converted amounts (≈) assume the structure as drawn.

Tests used:
Assay type in all cases: functional
Panonychus citri [1] = assay: Insecticidal activity against Panonychus citri at 200 ppm up to 21 days
Bacillus subtilis = assay: Antibacterial activity against Bacillus subtilis after 48 hr
Pseudomonas aeruginosa = assay: Antibacterial activity against Pseudomonas aeruginosa after 48 hr
Escherichia coli = assay: Antibacterial activity against Escherichia coli after 48 hr
Persicaria hydropiper [2] = assay: Herbicidal activity against Persicaria hydropiper assessed as disease control at 1000 ppm treated in soil during 15 to 20 days relative to control
Eleusine indica [3] = assay: Herbicidal activity against Eleusine indica assessed as disease control at 1000 ppm treated in soil during 15 to 20 days relative to control
Echinochloa crus-galli [4] = assay: Herbicidal activity against Echinochloa crus-galli (barnyard grass) assessed as disease control at 1000 ppm treated in soil during 15 to 20 days relative to control
Fusarium fujikuroi = assay: Antifungal activity against Fusarium fujikuroi after 7 days; set-up: concentration or dose not given beside the values
Xanthomonas axonopodis = assay: Antibacterial activity against Xanthomonas axonopodis after 7 days; set-up: concentration or dose not given beside the values
[5] = system: Pseudoperonospora cubensis; assay: Antifungal activity against Pseudoperonospora cubensis after 7 days; set-up: concentration or dose not given beside the values
Botrytis cinerea = assay: Antifungal activity against Botryotinia fuckeliana after 7 days; set-up: concentration or dose not given beside the values
Pyricularia oryzae = assay: Antifungal activity against Magnaporthe oryzae after 7 days; set-up: concentration or dose not given beside the values
Mycobacterium = assay: Antibacterial activity against Mycobacterium ovicum after 48 hr
Staphylococcus aureus = assay: Antibacterial activity against Staphylococcus aureus after 48 hr
Oryza sativa = assay: Herbicidal activity against Oryza sativa assessed as disease control at 1000 ppm treated in paddy field during 15 to 20 days relative to control
Cyperus compressus = assay: Herbicidal activity against Cyperus compressus assessed as disease control at 1000 ppm treated in paddy field during 15 to 20 days relative to control
Echinochloa crus-galli [6] = assay: Herbicidal activity against Echinochloa crus-galli (barnyard grass) assessed as disease control at 1000 ppm treated in paddy field during 15 to 20 days relative to control
Chenopodium album [7] = assay: Herbicidal activity against Chenopodium album assessed as disease control at 1000 ppm treated in foliage during 15 to 20 days relative to control
Amaranthus viridis [8] = assay: Herbicidal activity against Amaranthus viridis assessed as disease control at 1000 ppm treated in foliage during 15 to 20 days relative to control
Persicaria hydropiper [9] = assay: Herbicidal activity against Persicaria hydropiper assessed as disease control at 1000 ppm treated in foliage during 15 to 20 days relative to control
Eleusine indica [10] = assay: Herbicidal activity against Eleusine indica assessed as disease control at 1000 ppm treated in foliage during 15 to 20 days relative to control
Echinochloa crus-galli [11] = assay: Herbicidal activity against Echinochloa crus-galli (barnyard grass) assessed as disease control at 1000 ppm treated in foliage during 15 to 20 days relative to control
Amaranthus viridis [12] = assay: Herbicidal activity against Amaranthus viridis assessed as disease control at 1000 ppm treated in soil during 15 to 20 days relative to control
Chenopodium album [13] = assay: Herbicidal activity against Chenopodium album assessed as disease control at 1000 ppm treated in soil during 15 to 20 days relative to control
Panonychus citri [14] = assay: Insecticidal activity against Panonychus citri at 500 ppm up to 21 days

| SMILES | MIC (Bacillus subtilis) | MIC (Pseudomonas aeruginosa) | Activity (Persicaria hydropiper [2]) | Activity (Eleusine indica [3]) | Activity (Echinochloa crus-galli [4]) | Activity (Fusarium fujikuroi) | Activity (Xanthomonas axonopodis) | Activity [5] | Activity (Botrytis cinerea) | Activity (Pyricularia oryzae) | Activity (Oryza sativa) | Activity (Cyperus compressus) | Activity (Echinochloa crus-galli [6]) | Activity (Chenopodium album [7]) | Activity (Amaranthus viridis [8]) | Activity (Persicaria hydropiper [9]) | Activity (Eleusine indica [10]) | Activity (Echinochloa crus-galli [11]) | Activity (Amaranthus viridis [12]) | Activity (Chenopodium album [13]) | other results |
| --- | --- | --- | --- | --- | --- | --- | --- | --- | --- | --- | --- | --- | --- | --- | --- | --- | --- | --- | --- | --- | --- |
| OC(c1ccc(Cl)cc1)(c1ccc(Cl)cc1)C(Cl)(Cl)Cl [DICOFOL] |  |  |  |  |  |  |  |  |  |  |  |  |  |  |  |  |  |  |  |  | Activity (Panonychus citri [1]): 98.3% |
| c1ccc2[nH]c(-c3ccnc4ccccc34)nc2c1 | 100 µg/mL (≈ 408 µM) | 100 µg/mL (≈ 408 µM) |  |  |  |  |  |  |  |  |  |  |  |  |  |  |  |  |  |  | MIC (Escherichia coli): 100 µg/mL (≈ 408 µM) |
| O=[N+]([O-])c1ccc2[nH]c(-c3ccccn3)nc2c1 | 50 µg/mL (≈ 208 µM) | 100 µg/mL (≈ 416 µM) | <39% | <39% | <39% | <39% | 40% | <39% | <39% | 60% | <39% | <39% | <39% | <39% | <39% | <39% | <39% | <39% | <39% | <39% | MIC (Mycobacterium): 50 µg/mL (≈ 208 µM); MIC (Escherichia coli): 10 µg/mL (≈ 41.6 µM); MIC (Staphylococcus aureus): 50 µg/mL (≈ 208 µM) |
| Clc1ccc2nc(-c3ccccn3)[nH]c2c1 | 50 µg/mL (≈ 218 µM) | 100 µg/mL (≈ 435 µM) | <39% | <39% | <39% | <39% | 60% | >80% | >80% | 60% | <39% | <39% | <39% | <39% | <39% | <39% | <39% | <39% | <39% | <39% | MIC (Mycobacterium): 50 µg/mL (≈ 218 µM); MIC (Escherichia coli): 50 µg/mL (≈ 218 µM); MIC (Staphylococcus aureus): 50 µg/mL (≈ 218 µM); Activity (Panonychus citri [14]): 32.5% |
| FC(F)(F)c1ccc2sc(-c3ccccn3)nc2c1 |  |  | <39% | <39% | <39% | <39% | <39% | <39% | <39% | <39% | <39% | >80% | >80% | >80% | >80% | <39% | <39% | <39% | 60% | <39% | Activity (Panonychus citri [14]): 81.3% |
| Clc1cccc2nc(-c3ccccn3)[nH]c12 |  |  | <39% | <39% | <39% | <39% | 60% | <39% | >80% | >80% | <39% | <39% | <39% | <39% | <39% | <39% | <39% | <39% | <39% | <39% | Activity (Panonychus citri [14]): 91.5% |
